Data published in ChEMBL document CHEMBL4308841, “Synthesis, in vitro antiproliferative activity, and kinase inhibitory effects of pyrazole-containing diarylureas and diarylamides” (Eur J Med Chem, 2018).

What was measured:
NCI-H226 = assay: Growth inhibition of human NCI-H226 cells incubated for 48 hrs by sulforhodamine B assay; assay type: functional, cell-based; conditions: NCI-H226, 48 h
SW-620 = assay: Growth inhibition of human SW620 cells incubated for 48 hrs by sulforhodamine B assay; assay type: functional, cell-based; conditions: SW-620, 48 h
SF-295 [1] = assay: Growth inhibition of human SF295 cells incubated for 48 hrs by sulforhodamine B assay; assay type: functional, cell-based; conditions: SF-295, 48 h
SNB-75 = assay: Growth inhibition of human SNB75 cells incubated for 48 hrs by sulforhodamine B assay; assay type: functional, cell-based; conditions: SNB-75, 48 h
SR = assay: Growth inhibition of human SR cells assessed as cell growth at 0.01 uM incubated for 48 hrs by sulforhodamine B assay relative to control; assay type: functional; conditions: read-out: Activity
NCI-H322M = assay: Growth inhibition of human NCI-H322M cells assessed as cell growth at 0.01 uM incubated for 48 hrs by sulforhodamine B assay relative to control; assay type: functional; conditions: read-out: Activity
U-251 = assay: Growth inhibition of human U251 cells assessed as cell growth at 0.01 uM incubated for 48 hrs by sulforhodamine B assay relative to control; assay type: functional; conditions: U-251, 48 h, read-out: Activity
M14 = assay: Growth inhibition of human M14 cells assessed as cell growth at 0.01 uM incubated for 48 hrs by sulforhodamine B assay relative to control; assay type: functional; conditions: M14, 48 h, read-out: Activity
MDA-MB-435 [2] = assay: Growth inhibition of human MDA-MB-435 cells assessed as cell growth at 0.01 uM incubated for 48 hrs by sulforhodamine B assay relative to control; assay type: functional; conditions: MDA-MB-435, 48 h, read-out: Activity
MDA-MB-231 = assay: Growth inhibition of human MDA-MB-231 cells assessed as cell growth at 0.01 uM incubated for 48 hrs by sulforhodamine B assay relative to control; assay type: functional; conditions: MDA-MB-231, 48 h, read-out: Activity
SF-295 [3] = assay: Growth inhibition of human SF295 cells assessed as cell growth at 0.1 uM incubated for 48 hrs by sulforhodamine B assay relative to control; assay type: functional; conditions: SF-295, 48 h, read-out: Activity
SF-539 = assay: Growth inhibition of human SF539 cells assessed as cell growth at 0.1 uM incubated for 48 hrs by sulforhodamine B assay relative to control; assay type: functional; conditions: SF-539, 48 h, read-out: Activity
LOX IMVI = assay: Growth inhibition of human LOXIMVI cells assessed as cell growth at 0.1 uM incubated for 48 hrs by sulforhodamine B assay relative to control; assay type: functional; conditions: read-out: Activity
OVCAR-4 [4] = assay: Growth inhibition of human OVCAR4 cells assessed as cell growth at 0.1 uM incubated for 48 hrs by sulforhodamine B assay relative to control; assay type: functional; conditions: OVCAR-4, 48 h, read-out: Activity
SK-OV-3 = assay: Growth inhibition of human SKOV3 cells assessed as cell growth at 0.1 uM incubated for 48 hrs by sulforhodamine B assay relative to control; assay type: functional; conditions: SK-OV-3, 48 h, read-out: Activity
PC-3 = assay: Growth inhibition of human PC3 cells assessed as cell growth at 0.1 uM incubated for 48 hrs by sulforhodamine B assay relative to control; assay type: functional; conditions: PC-3, 48 h, read-out: Activity
SF-268 [5] = assay: Growth inhibition of human SF268 cells assessed as cell growth at 1 uM incubated for 48 hrs by sulforhodamine B assay relative to control; assay type: functional; conditions: SF-268, 48 h, read-out: Activity
SF-295 [6] = assay: Growth inhibition of human SF295 cells assessed as cell growth at 1 uM incubated for 48 hrs by sulforhodamine B assay relative to control; assay type: functional; conditions: SF-295, 48 h, read-out: Activity
OVCAR-8 = assay: Growth inhibition of human OVCAR8 cells assessed as cell growth at 1 uM incubated for 48 hrs by sulforhodamine B assay relative to control; assay type: functional; conditions: OVCAR-8, 48 h, read-out: Activity
ACHN = assay: Growth inhibition of human ACHN cells assessed as cell growth at 1 uM incubated for 48 hrs by sulforhodamine B assay relative to control; assay type: functional; conditions: read-out: Activity
UO-31 [7] = assay: Growth inhibition of human UO31 cells assessed as cell growth at 1 uM incubated for 48 hrs by sulforhodamine B assay relative to control; assay type: functional; conditions: UO-31, 48 h, read-out: Activity
A549 = assay: Growth inhibition of human A549/ATCC cells assessed as cell growth at 100 uM incubated for 48 hrs by sulforhodamine B assay relative to control; assay type: functional; conditions: A549, 48 h, read-out: Activity
SF-268 [8] = assay: Growth inhibition of human SF268 cells assessed as cell growth at 100 uM incubated for 48 hrs by sulforhodamine B assay relative to control; assay type: functional; conditions: SF-268, 48 h, read-out: Activity
MDA-MB-435 [9] = assay: Growth inhibition of human MDA-MB-435 cells assessed as cell growth at 100 uM incubated for 48 hrs by sulforhodamine B assay relative to control; assay type: functional; conditions: MDA-MB-435, 48 h, read-out: Activity
SK-MEL-2 = assay: Growth inhibition of human SK-MEL-2 cells assessed as cell growth at 100 uM incubated for 48 hrs by sulforhodamine B assay relative to control; assay type: functional; conditions: SK-MEL-2, 48 h, read-out: Activity
OVCAR-4 [10] = assay: Growth inhibition of human OVCAR4 cells assessed as cell growth at 100 uM incubated for 48 hrs by sulforhodamine B assay relative to control; assay type: functional; conditions: OVCAR-4, 48 h, read-out: Activity
OVCAR-5 = assay: Growth inhibition of human OVCAR5 cells assessed as cell growth at 100 uM incubated for 48 hrs by sulforhodamine B assay relative to control; assay type: functional; conditions: OVCAR-5, 48 h, read-out: Activity
CAKI-1 = assay: Growth inhibition of human Caki1 cells assessed as cell growth at 100 uM incubated for 48 hrs by sulforhodamine B assay relative to control; assay type: functional; conditions: CAKI-1, 48 h, read-out: Activity
Hs-578T = assay: Growth inhibition of human Hs578T cells assessed as cell growth at 100 uM incubated for 48 hrs by sulforhodamine B assay relative to control; assay type: functional; conditions: read-out: Activity
UO-31 [11] = assay: Growth inhibition of human UO31 cells assessed as cell growth at 0.1 uM incubated for 48 hrs by sulforhodamine B assay relative to control; assay type: functional; conditions: UO-31, 48 h, read-out: Activity
[12] = read-out: LC50 (the source's name)
[13] = read-out: pLC50 (the source's name) (converted)

COc1cc(Cl)cc(-c2nn(-c3cccc(NC(=O)Nc4ccc(Cl)c(Cl)c4)c3)cc2-c2ccncc2)c1
GI50 (NCI-H226; read-out: GI50): 3.06 µM | LC50 (NCI-H226; read-out: LC50): > 100 µM | TGI (NCI-H226; read-out: TGI): > 100 µM | GI50 (NCI-H226; read-out: pGI50 (converted)): 3.09 µM | LC50 (NCI-H226; read-out: pLC50 (converted)): > 100 µM | TGI (NCI-H226; read-out: pTGI (converted)): > 100 µM | GI50 (SW-620; read-out: GI50): 3.43 µM | LC50 (SW-620; read-out: LC50): > 100 µM | TGI (SW-620; read-out: TGI): > 100 µM | GI50 (SW-620; read-out: pGI50 (converted)): 3.39 µM | LC50 (SW-620; read-out: pLC50 (converted)): > 100 µM | TGI (SW-620; read-out: pTGI (converted)): > 100 µM | GI50 (SF-295 [1]; read-out: GI50): 1.37 µM | CC50 (SF-295 [1]; [12]): > 100 µM | TGI (SF-295 [1]; read-out: TGI): 72.1 µM | GI50 (SF-295 [1]; read-out: pGI50 (converted)): 1.78 µM | CC50 (SF-295 [1]; [13]): > 100 µM | TGI (SF-295 [1]; read-out: pTGI (converted)): 7.24 µM | GI50 (SNB-75; read-out: GI50): 2.11 µM | CC50 (SNB-75; [12]): > 100 µM | TGI (SNB-75; read-out: TGI): 45.6 µM | GI50 (SNB-75; read-out: pGI50 (converted)): 2.14 µM | CC50 (SNB-75; [13]): > 100 µM | TGI (SNB-75; read-out: pTGI (converted)): 49 µM | growth at 0.01 µM (SR): 94% | growth at 0.01 µM (NCI-H322M): 101% | growth at 0.01 µM (U-251): 95% | growth at 0.01 µM (M14): 97% | growth at 0.01 µM (MDA-MB-435 [2]): 93% | growth at 0.01 µM (MDA-MB-231): 109% | growth at 0.1 µM (SF-295 [3]): 57% | growth at 0.1 µM (SF-539): 92% | growth at 0.1 µM (LOX IMVI): 94% | growth at 0.1 µM (OVCAR-4 [4]): 95% | growth at 0.1 µM (SK-OV-3): 90% | growth at 0.1 µM (PC-3): 98% | growth at 1 µM (SF-268 [5]): 88% | growth at 1 µM (SF-295 [6]): 70% | growth at 1 µM (OVCAR-8): 78% | growth at 1 µM (ACHN): 91% | growth at 1 µM (UO-31 [7]): 88% | growth at 100 µM (A549): -10% | growth at 100 µM (SF-268 [8]): 11% | growth at 100 µM (MDA-MB-435 [9]): -33% | growth at 100 µM (SK-MEL-2): -70% | growth at 100 µM (OVCAR-4 [10]): -4% | growth at 100 µM (OVCAR-5): 9% | growth at 100 µM (CAKI-1): -8% | growth at 100 µM (Hs-578T): 28%

O=C(Nc1cccc(-n2cc(-c3ccncc3)c(-c3cc(O)cc(Cl)c3)n2)c1)c1ccc(N2CCOCC2)c(C(F)(F)F)c1
GI50 (NCI-H226; read-out: GI50): 2.56 µM | LC50 (NCI-H226; read-out: LC50): > 100 µM | TGI (NCI-H226; read-out: TGI): > 100 µM | GI50 (NCI-H226; read-out: pGI50 (converted)): 28.8 µM | LC50 (NCI-H226; read-out: pLC50 (converted)): > 100 µM | TGI (NCI-H226; read-out: pTGI (converted)): > 100 µM | GI50 (SW-620; read-out: GI50): 2.53 µM | LC50 (SW-620; read-out: LC50): > 100 µM | TGI (SW-620; read-out: TGI): 70.6 µM | GI50 (SW-620; read-out: pGI50 (converted)): 2.82 µM | LC50 (SW-620; read-out: pLC50 (converted)): > 100 µM | TGI (SW-620; read-out: pTGI (converted)): 7.08 µM | GI50 (SF-295 [1]; read-out: GI50): 0.514 µM | CC50 (SF-295 [1]; [12]): 25.1 µM | TGI (SF-295 [1]; read-out: TGI): 27.8 µM | GI50 (SF-295 [1]; read-out: pGI50 (converted)): 0.617 µM | CC50 (SF-295 [1]; [13]): 28.2 µM | TGI (SF-295 [1]; read-out: pTGI (converted)): 2.75 µM | GI50 (SNB-75; read-out: GI50): 0.772 µM | CC50 (SNB-75; [12]): > 100 µM | TGI (SNB-75; read-out: TGI): > 100 µM | GI50 (SNB-75; read-out: pGI50 (converted)): 0.724 µM | CC50 (SNB-75; [13]): > 100 µM | TGI (SNB-75; read-out: pTGI (converted)): > 100 µM | growth at 0.01 µM (SR): 92% | growth at 0.01 µM (NCI-H322M): 56% | growth at 0.01 µM (U-251): 97% | growth at 0.01 µM (M14): 95% | growth at 0.01 µM (MDA-MB-435 [2]): 96% | growth at 0.01 µM (MDA-MB-231): 100% | growth at 0.1 µM (SF-295 [3]): 90% | growth at 0.1 µM (SF-539): 93% | growth at 0.1 µM (LOX IMVI): 102% | growth at 0.1 µM (OVCAR-4 [4]): 103% | growth at 0.1 µM (SK-OV-3): 102% | growth at 0.1 µM (UO-31 [11]): 95% | growth at 0.1 µM (PC-3): 92% | growth at 1 µM (SF-268 [5]): 89% | growth at 1 µM (SF-295 [6]): 39% | growth at 1 µM (OVCAR-8): 57% | growth at 1 µM (ACHN): 52% | growth at 1 µM (UO-31 [7]): 57% | growth at 100 µM (A549): -14% | growth at 100 µM (SF-268 [8]): 38% | growth at 100 µM (MDA-MB-435 [9]): 8% | growth at 100 µM (SK-MEL-2): -30% | growth at 100 µM (OVCAR-4 [10]): 57% | growth at 100 µM (OVCAR-5): -47% | growth at 100 µM (CAKI-1): -32% | growth at 100 µM (Hs-578T): 30%
